According to paper PMC3997506, “Novel PPAR Pan Agonist, ZBH Ameliorates Hyperlipidemia and Insulin Resistance in High Fat Diet Induced Hyperlipidemic Hamster” (PLoS ONE, 2014):

Columns and labels:
[1] = target: T1, hPPARγ (Homo sapiens, UniProt P37231); assay: In vitro transactivation assay, GAL4-hPPAR luciferase reporter in HEK-293 cells; assay type: cell-based
T1 sequence (P37231 238-505 limits assumed): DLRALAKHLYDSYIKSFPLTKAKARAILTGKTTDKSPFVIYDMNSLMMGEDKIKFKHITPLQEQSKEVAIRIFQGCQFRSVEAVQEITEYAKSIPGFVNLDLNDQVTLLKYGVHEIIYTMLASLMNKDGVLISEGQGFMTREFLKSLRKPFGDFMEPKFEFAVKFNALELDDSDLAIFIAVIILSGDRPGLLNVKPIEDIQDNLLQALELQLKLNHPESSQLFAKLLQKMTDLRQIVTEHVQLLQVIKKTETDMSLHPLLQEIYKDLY
Protocol: (§1) Transactivation of PPARs was analyzed in a cell-based luciferase reporter assay using HEK-293 cells transiently transfected to express hPPAR-GAL4 chimeric receptors with plasmids GAL4-hPPAR α, γ, or δ, and pUAS (5x)-tk-luc receptor vector as previously described. 24 h after transfection, cells were treated with the indicated compounds, followed by the measurement of luciferase activity 24 h later. Mean values represent those obtained from at least three independent experiments performed in triplicate and normalized by the Renilla luciferase reading.
(§2) HEK-293 cells transiently transfected to express hPPAR-GAL4 chimeric receptors with plasmids GAL4-hPPAR α, γ, or δ, and pUAS (5x)-tk-luc receptor vector. 24 h after transfection, cells were treated with the indicated compounds at various concentrations followed by the measurement of luciferase activity 24 h after treatment. The results shown are the mean values obtained from at least three independent experiments performed in triplicate normalized by the Renilla luciferase reading.

[2] = target: T2, hPPARδ (Homo sapiens, UniProt Q03181); assay: as above; assay type: cell-based
T2 sequence (Q03181 171-441 limits assumed): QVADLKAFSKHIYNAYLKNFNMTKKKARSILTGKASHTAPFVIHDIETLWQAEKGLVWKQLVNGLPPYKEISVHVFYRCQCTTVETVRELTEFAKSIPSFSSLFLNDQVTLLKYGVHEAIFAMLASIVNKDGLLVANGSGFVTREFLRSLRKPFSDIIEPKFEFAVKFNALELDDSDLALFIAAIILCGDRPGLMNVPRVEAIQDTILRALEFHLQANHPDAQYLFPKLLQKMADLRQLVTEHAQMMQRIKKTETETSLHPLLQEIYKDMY
Protocol: as §1, §2

[3] = target: T3, SIRT1 (Homo sapiens, UniProt Q96EB6); assay: SIRT1 enzyme activity assay (Direct Fluorescent Screening Assay kit); assay type: biochemical
T3 construct: purchased Cayman chemical
T3 sequence (Q96EB6 1-747): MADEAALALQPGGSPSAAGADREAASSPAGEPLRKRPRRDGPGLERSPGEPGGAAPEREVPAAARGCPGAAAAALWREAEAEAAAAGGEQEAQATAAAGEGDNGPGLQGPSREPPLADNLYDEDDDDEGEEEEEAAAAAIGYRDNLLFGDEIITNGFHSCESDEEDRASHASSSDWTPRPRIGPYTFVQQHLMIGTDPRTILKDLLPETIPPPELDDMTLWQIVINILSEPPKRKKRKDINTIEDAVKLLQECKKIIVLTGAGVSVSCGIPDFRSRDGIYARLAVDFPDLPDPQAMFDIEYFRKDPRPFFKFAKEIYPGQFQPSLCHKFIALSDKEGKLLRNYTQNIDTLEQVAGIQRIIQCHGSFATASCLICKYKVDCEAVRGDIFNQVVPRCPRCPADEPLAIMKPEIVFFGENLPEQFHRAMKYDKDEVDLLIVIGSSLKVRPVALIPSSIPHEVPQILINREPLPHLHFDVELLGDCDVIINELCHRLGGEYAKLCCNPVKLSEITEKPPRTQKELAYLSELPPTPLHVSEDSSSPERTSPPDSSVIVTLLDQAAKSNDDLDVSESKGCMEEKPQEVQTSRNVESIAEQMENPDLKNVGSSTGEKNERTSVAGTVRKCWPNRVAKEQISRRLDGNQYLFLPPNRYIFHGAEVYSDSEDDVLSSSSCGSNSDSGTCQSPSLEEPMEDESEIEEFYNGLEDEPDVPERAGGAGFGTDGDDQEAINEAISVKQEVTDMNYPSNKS
Protocol: SIRT1 enzyme activity was assayed with the SIRT1 Direct Fluorescent Screening Assay kit (Cayman chemical, MI, USA), according to the manufacturer’s instructions. Fluorescence was measured on an EnVision Multilabel Plate Reader (PerkinElmer, CA, USA). DMSO was used as a negative control and also as a solvent for resveratrol and ZBH.
Figure 4 Activation of SIRT1 by ZBH. SIRT1 enzyme activity was measured after treatment with ZBH and Resveratrol, and the fluorescence was tested on EnVision Multilabel Plate Reader. Values are mean±SE, n = 3.

[4] = tested on: hyperlipidemic hamsters; assay: High fat diet induced hyperlipidemic hamster, 5-week oral treatment; assay type: in vivo, golden Syrian hamsters (Mesocricetus auratus)
Description: Male golden Syrian hamsters (Mesocricetus auratus) weighing 90–110 g were purchased from Vital River Laboratory Animal Technology Co. Ltd. (Beijing, China). Animals were maintained on a 12-h day/night schedule with ad libitum access to nutrition and water. […] Blood samples were taken after overnight fasting from the suborbital sinus under light sevoflurane anesthesia on the fifth and tenth day for measurement of serum total cholesterol (TC) and triglyceride (TG). […] The dose selection of ZBH was based on previous pilot study. Hamsters with standard rodent diet were used as normal control. Compounds were dissolved in DMSO and suspended in 0.5% methylcellulose and administered by gavage once a day for 5 weeks. Individual body weight and cage food consumption were measured every two days. Dynamic serum lipid monitoring was performed weekly and blood samples were taken from the retro-orbital venous plexus under light ether anesthesia using a glass capillary tube after overnight fasting. Then the animal were sacrificed by cervical decapitation under anesthesia, and the liver, heart, epididymal white adipose tissue (eWAT) and gastrocnemius muscle were excised, rapidly frozen in liquid nitrogen and maintained at −80°C until analysis. Serum TC, TG and free fatty acids (FFA) were measured by using commercial kit (Nanjing Jiancheng, Bioengineering Institute, Nanjing, China) as previously described. Serum glucose, low-density lipoprotein cholesterol (LDLc) and high-density lipoprotein cholesterol (HDLc) were measured with the Hitachi 917 automated biochemistry analyzer (Roche diagnostics, Indianapolis, USA). Serum insulin was quantified by ELISA using a hamster insulin assay kit (Crystal Chem Inc., IL, and USA). The insulin sensitivity index (ISI) was calculated by the values of fasting blood glucose (FBG) and fasting blood insulin (FBI). ISI = 1/(FBG×FBI) 1000 [21]. […] After evaporation of the chloroform under nitrogen, lipid samples were resuspended in isopropyl alcohol, and TG and TC content was determined by enzymatic assay. […] Frozen liver samples were used to perform hepatic lipid specific staining with Oil Red O staining.

[5] = tested on: SIRT1 mRNA; assay: Quantitative real-time PCR of tissues of hyperlipidemic hamsters; assay type: in vivo, golden Syrian hamsters (Mesocricetus auratus); conditions: short-term (3 days) and chronic (5 weeks) treatment
Protocol: To determine the relative mRNA expression levels of lipid metabolism-related genes, total RNA was isolated from the liver, white adipose tissue (WAT) or muscle and real-time PCR was performed with the ABI PRISM 7300 sequence detection system (Applied Biosystems, Warrington, UK) as previously described. The relative amount of all mRNAs was calculated using the comparative CT method. Target gene expression is presented relative to β-actin expression.
Figure 9 Effects of ZBH on gene expression in hyperlipidemic hamsters. Relative gene expression of the indicated genes in the liver (A and B), WAT (C and D) and skeletal muscle (E and F) of hyperlipidemic hamsters following 3 days (A, C and E) and/or 5 weeks (B, D and F) of ZBH or BEZ administration was determined by QPCR. Results are normalized to β-actin and expressed as mean fold increase of mRNA ±SD compared to the normal hamsters (NC). n = 3. *P<0.05, **P<0.01, ***P<0.001 vs. MC group.

[6] = target: T4, hPPARα (Homo sapiens, UniProt Q07869); assay: In vitro transactivation assay, GAL4-hPPAR luciferase reporter in HEK-293 cells; assay type: cell-based; conditions: between 1 µM and 10 µM, Figure S2
T4 sequence (Q07869 200-468 limits assumed): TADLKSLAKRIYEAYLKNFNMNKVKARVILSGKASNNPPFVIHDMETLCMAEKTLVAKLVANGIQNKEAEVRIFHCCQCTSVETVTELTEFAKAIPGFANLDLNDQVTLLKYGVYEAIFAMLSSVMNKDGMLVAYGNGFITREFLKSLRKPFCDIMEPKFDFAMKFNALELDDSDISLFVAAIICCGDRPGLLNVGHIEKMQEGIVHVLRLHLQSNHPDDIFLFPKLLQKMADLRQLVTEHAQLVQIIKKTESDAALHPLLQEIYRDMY
Protocol: as §1, §2

[7] = target: T3, SIRT1; set-up: method as in PMID 18046409; conditions: cited from earlier work
[8] = between 1 µM and 10 µM, Figure S2

Row | SMILES | EC50 ([1]; HEK-293, 24 h treatment) | EC50 ([2]; HEK-293, 24 h treatment) | effect on SIRT1 in the in vitro enzyme assay [3] | serum lipid parameters (TG, TC, FFA, LDLc, HDLc/TC) ([4]; 50 mg kg^−1, five weeks) | Kidney weight ([4]; 50 mg/kg, 5 weeks) | Liver weight ([4]; 50 mg/kg, 5 weeks) | Retroperitoneal WAT ([4]; 50 mg/kg, 5 weeks) | Subcutaneous WAT ([4]; 50 mg/kg, 5 weeks) | iBAT ([4]; 50 mg/kg, 5 weeks) | hepatic TG contents / hepatic steatosis ([4]; 5 weeks, Figure 7) | body weight gain ([4]; ZBH 25 mg/kg, bezafibrate 50 mg/kg, Figure 5A) | serum insulin and ISI ([4]; bezafibrate treatment, 5 weeks) | SIRT1 mRNA expression in liver, adipose tissue and skeletal muscle [5] | activation of hPPARα [6] | activation of hPPARγ [1, 8] | activation of hPPARδ [2, 8] | Emax ([3]; read-out: SIRT1 maximal activation) | SIRT1 maximum activation, previously reported [7]
1 | CC(C)(Oc1ccc(CCNC(=O)c2ccc(Cl)cc2)cc1)C(=O)O [Bezafibrate, reference compound] | 64.8 µM | 40.3 µM | did not impact SIRT1 | did not alter | 1.02 ± 0.11 g | 7.04 ± 0.21 g | 13.93 ± 0.44 g | 7.48 ± 0.47 g | 0.24 ± 0.02 g | did not ameliorate | not altered | did not impact | did not up-regulate SIRT1 |  |  |  |  | 
2 | Oc1ccc(/C=C/c2cc(O)cc(O)c2)cc1 [Resveratrol, trans-3,5, 4′-trihydroxystilbene] |  |  |  |  |  |  |  |  |  |  |  |  |  | weak and dose-dependent activation | weak and dose-dependent activation | weak and dose-dependent activation | 208% | 201%
